Experimental data: PubChem BioAssay AID1745844 (Carcinogenic Potency Database (CPDB), 2022)
Calls of active or inactive are those of the source. The rule behind the calls is not given here.

Tested on: rodent lifetime carcinogenesis bioassay, tumor incidence TD50
Assay: carcinogenic potency in animals, long-term in vivo studies, CPDB compilation (AID 1745844)

SMILES: CN(C)N=O
- TD50 (mouse, strain A, males, in drinking water, site: lung, lesion: alveolar-cell adenoma, dosed 72 weeks, study length 72 weeks): 0.177 mg/kg/day
- TD50 (mouse, strain BALB/c, females, in drinking water, site: any site (literature study), lesion: several types, types named in the paper, dosed 85 weeks, study length 85 weeks): 0.396 mg/kg/day
- TD50 (mouse, strain BALB/c, females, in drinking water, site: lung, lesion: adenoma, dosed 85 weeks, study length 85 weeks): 0.324 mg/kg/day
- TD50 (mouse, strain C57BL, females, by gavage, site: any site (literature study), lesion: several types, types named in the paper, dosed 50 weeks, study length 72 weeks): 0.0964 mg/kg/day
- TD50 (mouse, strain C57BL, females, by gavage, site: forebrain, lesion: olfactory neuroepithelioma, dosed 50 weeks, study length 72 weeks): 0.153 mg/kg/day
- TD50 (mouse, strain C57BL, females, by gavage, site: liver, lesion: benign tumor, dosed 50 weeks, study length 72 weeks): 0.35 mg/kg/day
- TD50 (mouse, strain C57BL, females, by gavage, site: liver, lesion: malignant tumor, dosed 50 weeks, study length 72 weeks): 0.429 mg/kg/day
- TD50 (mouse, strain C57BL, males, by gavage, site: any site (literature study), lesion: several types, types named in the paper, dosed 50 weeks, study length 72 weeks): 0.06 mg/kg/day
- TD50 (mouse, strain C57BL, males, by gavage, site: forebrain, lesion: olfactory neuroepithelioma, dosed 50 weeks, study length 72 weeks): 0.161 mg/kg/day
- TD50 (mouse, strain C57BL, males, by gavage, site: liver, lesion: benign tumor, dosed 50 weeks, study length 72 weeks): 0.508 mg/kg/day
- TD50 (mouse, strain C57BL, males, by gavage, site: liver, lesion: malignant tumor, dosed 50 weeks, study length 72 weeks): 0.179 mg/kg/day
- TD50 (mouse, strain C57BL, males, by gavage, site: lung, lesion: adenoma, dosed 50 weeks, study length 72 weeks): 21.1 mg/kg/day
- TD50 (rat, strain Buffalo, males, in feed, site: liver, lesion: hepatocellular carcinoma, dosed 26 weeks, study length 52 weeks): 1.76 mg/kg/day
- TD50 (rat, strain Colworth (Wistar derived), females, in drinking water, site: liver, lesion: hepatocellular carcinoma, dosed 176 weeks, study length 176 weeks): 0.237 mg/kg/day
- TD50 (rat, strain Colworth (Wistar derived), females, in drinking water, site: liver, lesion: hepatocellular tumor, dosed 176 weeks, study length 176 weeks): 0.145 mg/kg/day
- TD50 (rat, strain Colworth (Wistar derived), females, in drinking water, site: liver, lesion: intrahepatic bile duct tumor, benign, dosed 176 weeks, study length 176 weeks): 0.0763 mg/kg/day
- TD50 (rat, strain Colworth (Wistar derived), females, in drinking water, site: liver, lesion: intrahepatic bile duct tumor, dosed 176 weeks, study length 176 weeks): 0.0752 mg/kg/day
- TD50 (rat, strain Colworth (Wistar derived), females, in drinking water, site: liver, lesion: mesenchymal hemangio-sarcoma, -pericytoma, or -endothelioma, malignant, dosed 176 weeks, study length 176 weeks): 0.914 mg/kg/day
- TD50 (rat, strain Colworth (Wistar derived), females, in drinking water, site: liver, lesion: neoplasm of liver cell, bile duct, mesenchyme, Kupffer cell, or unknown, dosed 176 weeks, study length 176 weeks): 0.0424 mg/kg/day
- TD50 (rat, strain Colworth (Wistar derived), males, in drinking water, site: liver, lesion: hepatocellular carcinoma, dosed 176 weeks, study length 176 weeks): 0.218 mg/kg/day
- TD50 (rat, strain Colworth (Wistar derived), males, in drinking water, site: liver, lesion: hepatocellular tumor, dosed 176 weeks, study length 176 weeks): 0.157 mg/kg/day
- TD50 (rat, strain Colworth (Wistar derived), males, in drinking water, site: liver, lesion: intrahepatic bile duct tumor, benign, dosed 176 weeks, study length 176 weeks): 0.313 mg/kg/day
- TD50 (rat, strain Colworth (Wistar derived), males, in drinking water, site: liver, lesion: intrahepatic bile duct tumor, malignant, dosed 176 weeks, study length 176 weeks): 23.6 mg/kg/day
- TD50 (rat, strain Colworth (Wistar derived), males, in drinking water, site: liver, lesion: intrahepatic bile duct tumor, dosed 176 weeks, study length 176 weeks): 0.308 mg/kg/day
- TD50 (rat, strain Colworth (Wistar derived), males, in drinking water, site: liver, lesion: mesenchymal hemangio-sarcoma, -pericytoma, or -endothelioma, malignant, dosed 176 weeks, study length 176 weeks): 0.712 mg/kg/day
- TD50 (rat, strain Colworth (Wistar derived), males, in drinking water, site: liver, lesion: neoplasm of liver cell, bile duct, mesenchyme, Kupffer cell, or unknown, dosed 176 weeks, study length 176 weeks): 0.0867 mg/kg/day
- TD50 (rat, strain Colworth (Wistar derived), males, in drinking water, site: lung, lesion: several types, types named in the paper, dosed 176 weeks, study length 176 weeks): 1.64 mg/kg/day
- TD50 (rat, strain Fischer 344, females, in drinking water, site: liver, lesion: hemangiosarcoma, dosed 30 weeks, study length 110 weeks): 0.438 mg/kg/day
- TD50 (rat, strain Fischer 344, females, in drinking water, site: liver, lesion: hepatocellular carcinoma, dosed 30 weeks, study length 110 weeks): 0.135 mg/kg/day
- TD50 (rat, strain Fischer 344, females, in drinking water, site: liver, lesion: several types, types named in the paper, dosed 30 weeks, study length 110 weeks): 0.0587 mg/kg/day
- TD50 (rat, strain Fischer 344, males, by gavage, site: kidney, lesion: mesenchymal neoplasm, dosed 30 weeks, study length 65 weeks): 0.189 mg/kg/day
- TD50 (rat, strain Fischer 344, males, by gavage, site: liver, lesion: cholangiocellular tumor, benign, dosed 30 weeks, study length 65 weeks): 0.822 mg/kg/day
- TD50 (rat, strain Fischer 344, males, by gavage, site: liver, lesion: hemangiosarcoma, dosed 30 weeks, study length 65 weeks): 0.822 mg/kg/day
- TD50 (rat, strain Fischer 344, males, by gavage, site: liver, lesion: hepatocellular tumor, benign, dosed 30 weeks, study length 65 weeks): 0.372 mg/kg/day
- TD50 (rat, strain Fischer 344, males, by gavage, site: liver, lesion: several types, types named in the paper, dosed 30 weeks, study length 65 weeks): 0.189 mg/kg/day
- TD50 (rat, strain Fischer 344, males, by gavage, site: lung, lesion: alveolar/bronchiolar adenoma, dosed 30 weeks, study length 65 weeks): 0.106 mg/kg/day
- TD50 (rat, strain Fischer 344, males, by gavage, site: lung, lesion: several types, types named in the paper, dosed 30 weeks, study length 65 weeks): 0.0765 mg/kg/day
- TD50 (rat, strain Fischer 344, males, by gavage, site: lung, lesion: squamous-cell carcinoma, dosed 30 weeks, study length 65 weeks): 0.372 mg/kg/day
- TD50 (rat, strain MRC Porton (Wistar derived), females, in feed, site: liver, lesion: one or several types, types not named, dosed 52 weeks, study length 120 weeks): 0.443 mg/kg/day
- TD50 (rat, strain MRC Porton (Wistar derived), females, in feed, site: liver, lesion: one or several types, types not named, dosed 108 weeks, study length 120 weeks): 1.4 mg/kg/day
- TD50 (rat, strain MRC Porton (Wistar derived), males, in feed, site: liver, lesion: one or several types, types not named, dosed 120 weeks, study length 120 weeks): 1.18 mg/kg/day
- TD50 (rat, strain Wistar, females, in feed, site: all sites, lesion: leukemia, dosed 96 weeks, study length 96 weeks): 1.46 mg/kg/day
- TD50 (rat, strain Wistar, females, in feed, site: liver, lesion: hemangioendothelioma, dosed 96 weeks, study length 96 weeks): 1.83 mg/kg/day
- TD50 (rat, strain Wistar, females, in feed, site: liver, lesion: hepatocellular carcinoma, dosed 96 weeks, study length 96 weeks): 4.1 mg/kg/day
- TD50 (rat, strain Wistar, females, in feed, site: liver, lesion: nodular hyperplasia, dosed 96 weeks, study length 96 weeks): 0.113 mg/kg/day
- carcinogen call (rat, strain Wistar, males, in feed, site: liver, lesion: carcinoma, dosed 54 weeks, study length 69 weeks): negative (inactive)
- TD50 (rat, strain Wistar, males, in feed, site: liver, lesion: hemangioendothelioma, dosed 96 weeks, study length 96 weeks): 1.95 mg/kg/day
- TD50 (rat, strain Wistar, males, in feed, site: liver, lesion: hepatocellular carcinoma, dosed 96 weeks, study length 96 weeks): 5.52 mg/kg/day
- TD50 (rat, strain Wistar, males, in feed, site: liver, lesion: nodular hyperplasia, dosed 96 weeks, study length 96 weeks): 0.782 mg/kg/day
- TD50 (rat, strain Wistar, males, in feed, site: testis, lesion: Leydig-cell tumor, dosed 54 weeks, study length 69 weeks): 0.136 mg/kg/day
